Here are results for 16 molecules from ChEMBL document CHEMBL1126528, “Synthesis and biological evaluation of a series of HIV-1 protease inhibitors” (Bioorg Med Chem Lett, 1993).

One experiment relates to MT2. Nature of the experiment: Concentration required for anti-viral activity (Anti-HIV-IIIB activity) against human T lymphoid (MT-2) cells that are infected with HIV-IIIB virus. The experiment is classed as functional, cell-based.
Experiment [1] deals with Human immunodeficiency virus type 1 protease (Human immunodeficiency virus 1, UniProt Q72874). Nature of the experiment: Concentration required for inhibitory activity against HIV-1 Protease.

As usually defined, the IC50 is the point on the concentration scale where inhibition reaches its midpoint. A higher IC50 goes with lower potency. Consider `CN(CC(O)C[C@@H](Cc1ccccc1)C(=O)N[C@H]1CCCC[C@@H]1NC(=O)c1ccc2ccccc2n1)[C@@H](CC1CCCCC1)C(=O)NC(C)(C)C` (some centres undefined), for which the IC50 with MT2 is greater than 1750 nM; in experiment [1], greater than 1400 nM.

For `CC[C@H](C)[C@H](NC(=O)[C@H](Cc1ccccc1)CC(O)(CO)CN(CC(=O)NC(C)(C)C)CC1CCCCC1)C(=O)NCc1nc2ccccc2[nH]1` (some centres undefined), the IC50 in the experiment on MT2 is greater than 1750 nM; in experiment [1] it was 140 nM.

As to `CC[C@H](C)[C@H](NC(=O)[C@H](Cc1ccccc1)CC(O)CN1C[C@H]2CCCC[C@H]2C[C@H]1C(=O)NC(C)(C)C)C(=O)NCc1nc2ccccc2[nH]1` (single isomer, unassigned), the IC50 in the experiment with MT2 amounted to 29 nM; in experiment [1] it was 30 nM. `CC[C@H](C)[C@H](NC(=O)[C@H](Cc1ccccc1)CC(O)(CO)CN1C[C@H]2CCCC[C@H]2C[C@H]1C(=O)NC(C)(C)C)C(=O)NCc1nc2ccccc2[nH]1` (some centres undefined): the IC50 with MT2 was 280 nM.

Regarding `CC[C@H](C)[C@H](NC(=O)[C@H](Cc1ccccc1)CC(O)CN1C[C@H]2CCCC[C@H]2C[C@H]1C(=O)NC(C)(C)C)C(=O)NCc1ccccn1` (some centres undefined), the IC50 stood at 310 nM in the experiment with MT2 and 150 nM in experiment [1]. For `CC[C@H](C)[C@H](NC(=O)[C@H](Cc1ccccc1)C[C@@H](O)CN1C[C@H]2CCCC[C@H]2C[C@H]1C(=O)NC(C)(C)C)C(=O)NCc1nc2ccccc2[nH]1` the same measures were 21 nM and 30 nM. On to `CC[C@H](C)[C@H](NC(=O)[C@H](Cc1ccccc1)CC(O)CN1C[C@H]2CCCC[C@H]2C[C@H]1C(=O)NC(C)(C)C)C(=O)OC` (some centres undefined), for which the IC50 in the experiment on MT2 was greater than 1750 nM. With `CC[C@H](C)[C@H](NC(=O)[C@H](Cc1ccccc1)CC(O)CN1CCCCC1C(=O)NC(C)(C)C)C(=O)NCc1ccccn1` (some centres undefined), the IC50 in the experiment with MT2 was greater than 1750 nM; in experiment [1], 250 nM. For `CC[C@H](C)[C@H](NC(=O)[C@H](Cc1ccccc1)CC(O)CN1CCCCC1C(=O)NC(C)(C)C)C(=O)NCc1nc2ccccc2[nH]1` (some centres undefined) the same measures were 480 nM and 30 nM. For `CC[C@H](C)[C@H](NC(=O)[C@H](Cc1ccccc1)CC(O)CN1CCC[C@@H]1C(=O)N[C@H](C(=O)OC(C)(C)C)[C@@H](C)CC)C(=O)NCc1nc2ccccc2[nH]1` (some centres undefined) the same measures were greater than 1750 nM and greater than 1400 nM. Take `CC[C@H](C)[C@H](NC(=O)[C@H](Cc1ccccc1)CC(O)CN1CCC[C@@H]1C(=O)NC(C)(C)C)C(=O)NCc1nc2ccccc2[nH]1` (some centres undefined): the IC50 turned out to be 490 nM in the experiment on MT2 and 80 nM in experiment [1]. As to `CC[C@H](C)[C@H](NC(=O)[C@H](Cc1ccccc1)CC(O)CN1C[C@H]2CCCC[C@H]2C[C@H]1C(=O)NC(C)(C)C)C(=O)NCCc1nc2ccccc2[nH]1` (some centres undefined), the IC50 in the experiment on MT2 is 850 nM; in experiment [1] it was 130 nM.

In the case of `CC[C@H](C)[C@H](NC(=O)[C@H](CC(C)C)CC(O)CN1C[C@H]2CCCC[C@H]2C[C@H]1C(=O)NC(C)(C)C)C(=O)NCc1nc2ccccc2[nH]1` (some centres undefined), the IC50 amounted to 31 nM with MT2 and 30 nM in experiment [1]. For the molecule `CC(C)(C)NC(=O)[C@@H]1C[C@@H]2CCCC[C@@H]2CN1C[C@@H](O)[C@H](Cc1ccccc1)NC(=O)[C@H](CC(N)=O)NC(=O)c1ccc2ccccc2n1`, in the experiment with MT2, the IC50 stood at 3 nM. Consider `CC(C)(C)NC(=O)[C@@H]1C[C@@H]2CCCC[C@@H]2CN1CC(O)C[C@@H](Cc1ccccc1)C(=O)N[C@H]1CCCC[C@@H]1NC(=O)c1cc2ccccc2cn1` (some centres undefined), for which the IC50 in the experiment on MT2 is 1750 nM; in experiment [1] it was 70 nM. With `CC(C)(C)NC(=O)[C@@H]1C[C@@H]2CCCC[C@@H]2CN1CC(O)C[C@@H](Cc1ccccc1)C(=O)N[C@H]1CCCC[C@@H]1NC(=O)c1ccc2ccccc2n1` (some centres undefined), the IC50 worked out at 3600 nM with MT2 and 70 nM in experiment [1].
